The target in one assay is T1, RORγ-LBD (Homo sapiens, UniProt P51449).
T1 construct: made in house; host or cells: SF9 cells (baculovirus)
T1 sequence (P51449 269-508 limits assumed): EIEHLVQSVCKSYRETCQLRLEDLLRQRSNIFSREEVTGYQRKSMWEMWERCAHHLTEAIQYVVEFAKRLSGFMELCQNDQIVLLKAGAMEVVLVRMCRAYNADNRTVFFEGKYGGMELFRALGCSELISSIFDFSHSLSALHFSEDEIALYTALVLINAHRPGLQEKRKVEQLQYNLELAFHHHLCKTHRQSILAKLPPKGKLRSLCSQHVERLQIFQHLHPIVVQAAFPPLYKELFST
The assay is described as follows: RORγ-Ligand Binding Domain (LBD) TR-FRET Assay.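 On TR-FRET Assay Max Response: 665/615 nm ratio relative to signal without ursolic acid or compound set at 100.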 It is filed as biochemical. Summed up:
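SF9 lysate containing His-RORγ-LBD, ~3 nM final; coactivator peptide biotin-SRC1 LXXLL, 200 nM final; ursolic acid 2 μM final; DMSO 1% final; Tris pH 7.0 buffer with KCl, EDTA, DTT, BSA. TR-FRET format.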
Background: TR-FRET usually uses a lanthanide donor and a delayed reading to cut background.

Another assay has as its target T2, Gal4-RORγ-LBD (Homo sapiens, UniProt P51449).
T2 construct: expressed in transfected cells; host or cells: HEK-293 cells (pcDNA3.1neo plasmid)
T2 sequence (P51449 269-508 limits assumed): T1 sequence (P51449 269-508 limits assumed)
Nature of the assay: Gal4-RORγ Luciferase Reporter Assay in HEK-293T Cells. Conditions: HEK-293 cells. In kind it is cell-based. The method, boiled down: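 In transfected HEK-293 cells (Gal4-RORγ-LBD, Gal4-luciferase), test agents with 2 μM ursolic acid were incubated overnight at 37 °C before luminescent detection. Values are relative to the ursolic-acid-free, compound-free signal (100).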
(In general: A reporter such as luciferase makes a cellular process visible.)

Where [1] appears, read: luciferase reporter, with 2 μM ursolic acid.

pEC50: −log10 of the molar value.

On to `O=C(O)[C@H]1C[C@H](C[C@H]2CN(S(=O)(=O)c3cccc(C(F)(F)F)c3)c3cc(-c4cccc(C(F)(F)F)n4)ccc3O2)C1` [Compound 60C, (1S,3r)-3-(((S)-4-((3-(trifluoro-methyl)phenyl)sulfonyl)-6-(6-(trifluoromethyl)pyridin-2-yl)-3,4-dihydro-2H-benzo[b][1,4]-oxazin-2-yl)methyl)cyclobutane-1-carboxylic acid], for which, at RORγ-LBD, the pEC50 (in general, the negative decadic logarithm of the EC50, by convention in mol/L) is greater than 6.30 and the “TR-FRET Assay Max Response” value was “** (The symbol “**” indicates a value in the range of greater than 90 to 150)”. On Gal4-RORγ-LBD (2 μM ursolic acid), the negative logarithm of the EC50 (pEC50) was greater than 6.30 and the “Gal4-RORγ Assay Max Response” value is listed as “** (The symbol “**” indicates a value in the range of greater than 90 to 150)”.

On to `COc1cncc(-c2ccc3c(c2)N(S(=O)(=O)c2cccc(C(F)(F)F)c2)C[C@H](CCC(=O)O)O3)n1` [Compound 4Y, (S)-3-(6-(6-methoxypyrazin-2-yl)-4-((3-(trifluoromethyl)-phenyl)sulfonyl)-3,4-dihydro-2H-benzo[b][1,4]oxazin-2-yl)propanoic acid], for which, on RORγ-LBD, the pEC50 was greater than 6.30 and the “TR-FRET Assay Max Response” value is reported as “**** (The symbol “****” indicates a value greater than 200)”. Moreover, on Gal4-RORγ-LBD (setting [1]), the pEC50 is 5.30 to 6.30 and the “Gal4-RORγ Assay Max Response” value is on record as “* (The symbol “*” indicates a value in the range of 25 to 90)”.

Turning to `CC(=O)NC[C@H]1CN(S(=O)(=O)c2cccc(C(F)(F)F)c2)c2cc(-c3cc(F)ccc3F)ccc2O1` [Compound 30BD, (S)-N-((6-(2,5-difluorophenyl)-4-((3-(trifluoromethyl)phenyl)-sulfonyl)-3,4-dihydro-2H-benzo[b][1,4]oxazin-2-yl)methyl)acetamide], on RORγ-LBD, the pEC50 was greater than 6.30 and the “TR-FRET Assay Max Response” value was “**** (The symbol “****” indicates a value greater than 200)”. Further, on Gal4-RORγ-LBD (setting [1]), the pEC50 was greater than 6.30 and the “Gal4-RORγ Assay Max Response” value is recorded as “** (The symbol “**” indicates a value in the range of greater than 90 to 150)”.

`CC(F)(F)C(=O)NC[C@H]1CN(S(=O)(=O)c2cccc(C(F)(F)F)c2)c2cc(-c3cccc(F)c3Cl)ccc2O1` [Compound 30CE, (S)-N-((6-(2-chloro-3-fluoro-phenyl)-4-((3-(trifluoromethyl)-phenyl)sulfonyl)-3,4-dihydro-2H-benzo[b][1,4]oxazin-2-yl)methyl)-2,2-difluoro-propanamide]: at RORγ-LBD, the pEC50 is greater than 6.30 and the “TR-FRET Assay Max Response” value is on record as “*** (The symbol “***” indicates a value in the range of greater than 150 to 200)”. For the same compound, on Gal4-RORγ-LBD (2 μM ursolic acid), the pEC50 was greater than 6.30 and the “Gal4-RORγ Assay Max Response” value is “* (The symbol “*” indicates a value in the range of 25 to 90)”.

Regarding `CC(=O)N[C@H]1C[C@@](C[C@H]2CN(S(=O)(=O)c3cccc(C(F)(F)F)c3)c3cc(-c4cc(F)ccc4F)ccc3O2)(C(=O)O)C1` [Compound 89A, (1s,3R)-3-acetamido-1-(((S)-6-(2,5-difluorophenyl)-4-((3-(trifluoro-methyl)phenyl)sulfonyl)-3,4-dihydro-2H-benzo[b][1,4]oxazin-2-yl)methyl)cyclobutane-1-carboxylic acid], on RORγ-LBD, the pEC50 was 5.30 to 6.30 and the “TR-FRET Assay Max Response” value is recorded as “*** (The symbol “***” indicates a value in the range of greater than 150 to 200)”. At Gal4-RORγ-LBD (2 μM ursolic acid), the pEC50 was 5.30 to 6.30 and the “Gal4-RORγ Assay Max Response” value is “** (The symbol “**” indicates a value in the range of greater than 90 to 150)”.

In the case of `O=C(O)CC[C@H]1CN(S(=O)(=O)c2cccc(C(F)(F)F)c2)c2cc(-c3cccc4ccnn34)ccc2O1` [Compound 4V, (S)-3-(6-(pyrazolo[1,5-a]-pyridin-7-yl)-4-((3-(trifluoro-methyl)-phenyl)sulfonyl)-3,4-dihydro-2H-benzo[b][1,4]-oxazin-2-yl)propanoic acid], at RORγ-LBD, the pEC50 is greater than 6.30 and the “TR-FRET Assay Max Response” value is reported as “**** (The symbol “****” indicates a value greater than 200)”. Also, on Gal4-RORγ-LBD (setting [1]), the pEC50 is 5.30 to 6.30 and the “Gal4-RORγ Assay Max Response” value is “** (The symbol “**” indicates a value in the range of greater than 90 to 150)”.

In the case of `O=C(O)C1CCN(C(=O)NC[C@H]2CN(S(=O)(=O)c3cccc(C(F)(F)F)c3)c3cc(-c4cc(F)ccc4F)ccc3O2)CC1` [Compound 23Q, (S)-1-(((6-(2,5-difluorophenyl)-4-((3-(trifluoromethyl)-phenyl)sulfonyl)-3,4-dihydro-2H-benzo[b][1,4]oxazin-2-yl)methyl)carbamoyl)piperidine-4-carboxylic acid], on RORγ-LBD, the pEC50 is greater than 6.30 and the “TR-FRET Assay Max Response” value is “**** (The symbol “****” indicates a value greater than 200)”. In addition, on Gal4-RORγ-LBD (setting [1]), the pEC50 is 5.30 to 6.30 and the “Gal4-RORγ Assay Max Response” value is “*** (The symbol “***” indicates a value in the range of greater than 150 to 200)”.

On to `CC(C)(C[C@H]1CN(S(=O)(=O)c2cccc(C(F)(F)F)c2)c2cc(-c3ccccc3C#N)ccc2O1)C(=O)O` [Compound 32AF, (S)-3-(6-(2-cyanophenyl)-4-((3-(trifluoromethyl)phenyl)sulfonyl)-3,4-dihydro-2H-benzo[b][1,4]-oxazin-2-yl)-2,2-dimethyl-propanoic acid], for which, at RORγ-LBD, the pEC50 is greater than 6.30 and the “TR-FRET Assay Max Response” value is given as “*** (The symbol “***” indicates a value in the range of greater than 150 to 200)”. Further, at Gal4-RORγ-LBD (2 μM ursolic acid), the pEC50 was 5.30 to 6.30 and the “Gal4-RORγ Assay Max Response” value was “** (The symbol “**” indicates a value in the range of greater than 90 to 150)”.

Consider `CC(C)(O)C(=O)NC[C@H]1CN(S(=O)(=O)c2cccc(C(F)(F)F)c2)c2cc(-c3cc(F)ccc3F)ccc2O1` [Compound 17, (S)—N-((6-(2,5-difluorophenyl)-4-((3-(trifluoromethyl)phenyl)sulfonyl)-3,4-dihydro-2H-benzo[b][1,4]oxazin-2-yl)methyl)-2-hydroxy-2-methylpropanamide], for which, at RORγ-LBD, the pEC50 was greater than 6.30 and the “TR-FRET Assay Max Response” value is recorded as “**** (The symbol “****” indicates a value greater than 200)”. Moreover, at Gal4-RORγ-LBD (2 μM ursolic acid), the pEC50 is greater than 6.30 and the “Gal4-RORγ Assay Max Response” value is reported as “** (The symbol “**” indicates a value in the range of greater than 90 to 150)”.

`COc1ccc(-c2ccc3c(c2)N(S(=O)(=O)c2cccc(C(F)(F)F)c2)C[C@H](CCC(=O)O)O3)cc1` [Compound 2U, (S)-3-(6-(4-methoxyphenyl)-4-((3-(trifluoromethyl)phenyl)-sulfonyl)-3,4-dihydro-2H-benzo[b][1,4]oxazin-2-yl)propanoic acid]: at RORγ-LBD, the pEC50 is greater than 6.30 and the “TR-FRET Assay Max Response” value is reported as “*** (The symbol “***” indicates a value in the range of greater than 150 to 200)”. Further, on Gal4-RORγ-LBD (setting [1]), the pEC50 was 5.30 to 6.30 and the “Gal4-RORγ Assay Max Response” value is “* (The symbol “*” indicates a value in the range of 25 to 90)”.

As to `O=C(O)[C@H](O)CC[C@H]1CN(S(=O)(=O)c2cccc(C(F)(F)F)c2)c2cc(-c3cc(F)ccc3F)ccc2O1` [Compound 38, (R)-4-((S)-6-(2,5-difluorophenyl)-4-((3-(trifluoromethyl)phenyl)sulfonyl)-3,4-dihydro-2H-benzo[b][1,4]oxazin-2-yl)-2-hydroxybutanoic acid], on RORγ-LBD, the pEC50 was greater than 6.30 and the “TR-FRET Assay Max Response” value is “*** (The symbol “***” indicates a value in the range of greater than 150 to 200)”. At Gal4-RORγ-LBD (setting [1]), the pEC50 was greater than 6.30 and the “Gal4-RORγ Assay Max Response” value was “** (The symbol “**” indicates a value in the range of greater than 90 to 150)”.

On to `O=C(O)C1(C[C@H]2CN(S(=O)(=O)c3cccc(C4CC4)c3)c3cc(-c4cc(F)cc(OC(F)F)c4)ccc3O2)COC1` [Compound 51F, (S)-3-((4-((3-cyclopropyl-phenyl)sulfonyl)-6-(3-(difluoro-methoxy)-5-fluorophenyl)-3,4-dihydro-2H-benzo[b][1,4]oxazin-2-yl)methyl)oxetane-3-carboxylic acid], for which, at RORγ-LBD, the pEC50 was greater than 6.30 and the “TR-FRET Assay Max Response” value is given as “*** (The symbol “***” indicates a value in the range of greater than 150 to 200)”. At Gal4-RORγ-LBD (2 μM ursolic acid), the pEC50 is greater than 6.30 and the “Gal4-RORγ Assay Max Response” value is reported as “** (The symbol “**” indicates a value in the range of greater than 90 to 150)”.

As to `O=C(O)C1(C[C@H]2CN(S(=O)(=O)c3cccc(C4CC4)c3)c3cc(-c4cc(F)ccc4F)ccc3O2)COC1` [Compound 51E, (S)-3-((4-((3-cyclopropylphenyl)sulfonyl)-6-(2,5-difluorophenyl)-3,4-dihydro-2H-benzo[b][1,4]oxazin-2-yl)methyl)oxetane-3-carboxylic acid], at RORγ-LBD, the pEC50 is greater than 6.30 and the “TR-FRET Assay Max Response” value is “*** (The symbol “***” indicates a value in the range of greater than 150 to 200)”. In addition, at Gal4-RORγ-LBD (2 μM ursolic acid), the pEC50 was less than 5.00 and the “Gal4-RORγ Assay Max Response” value is given as “*** (The symbol “***” indicates a value in the range of greater than 150 to 200)”.

As to `Cc1cc(-c2ccc3c(c2)N(S(=O)(=O)c2cccc(C(F)(F)F)c2)C[C@H](CCC(=O)O)O3)nc(N(C)C)c1` [Compound 4AN, (S)-3-(6-(6-(dimethylamino)-4-methylpyridin-2-yl)-4-((3-(trifluoromethyl)phenyl)sul-fonyl)-3,4-dihydro-2H-benzo[b][1,4]oxazin-2-yl)propanoic acid], on RORγ-LBD, the pEC50 is greater than 6.30 and the “TR-FRET Assay Max Response” value is “**** (The symbol “****” indicates a value greater than 200)”. Moreover, on Gal4-RORγ-LBD (setting [1]), the pEC50 is greater than 6.30 and the “Gal4-RORγ Assay Max Response” value is recorded as “** (The symbol “**” indicates a value in the range of greater than 90 to 150)”.
